Results taken from US20200246323A1, “Antibody Drug Conjugates with Cell Permeable BCL-XL Inhibitors” (AbbVie Inc., priority 2014, published 2020).
Like-named read-outs stand apart in the source and are kept apart here. Marks after values point to notes of the source that are not given here.

Assays:
NCI-H146 xenografts = test: Inhibition of H146 xenograft tumor growth; assay type: in vivo, mouse; details: Table 14; 50 mg/kg/day PO QDx21
NCI-H1963.FP5 xenografts = test: Inhibition of H1963.FP5 xenograft tumor growth; assay type: in vivo, mouse; details: Table 15; 50 mg/kg/day PO QDx21
circulating platelets [1] = details: SCID/bg, mouse, in vivo, po, 100 mg/kg
EBC-1 xenografts = test: Inhibition of EBC-1 xenograft tumor growth; assay type: in vivo, mouse; details: Table 13, 7.5 mg/kg/day IV QDx1
NCI-H1650 xenografts = test: Inhibition of H1650 xenograft tumor growth; assay type: in vivo, mouse; details: Table 9
GST-Bcl-xL = GST-Bcl-xL (Homo sapiens, UniProt Q07817); test: TR-FRET Bcl-xL binding assay (competition with probe F-Bak)
Chain of GST-Bcl-xL (Q07817 whole entry): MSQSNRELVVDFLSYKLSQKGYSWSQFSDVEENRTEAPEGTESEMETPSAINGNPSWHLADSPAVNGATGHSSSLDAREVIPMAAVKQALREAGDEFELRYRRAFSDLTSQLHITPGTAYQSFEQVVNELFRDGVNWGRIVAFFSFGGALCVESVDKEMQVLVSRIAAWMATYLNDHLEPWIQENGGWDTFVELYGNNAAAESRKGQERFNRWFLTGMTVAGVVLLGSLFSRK
Experimental: Tb-anti-GST antibody was purchased from Invitrogen (Catalog No. PV4216).
For the assay, test compounds were serially diluted in DMSO starting at 50 μM (2× starting concentration; 10% DMSO) and 10 μL transferred into a 384-well plate. 10 μL of a protein/probe/antibody mix was then added to each well at final concentrations listed below:
The samples were then mixed on a shaker for 1 minute and incubated for an additional 2 hours at room temperature. For each assay plate, a probe/antibody and protein/antibody/probe mixture were included as a negative and a positive control, respectively. Fluorescence was measured on the Envision (Perkin Elmer) using a 340/35 nm excitation filter and 520/525 (F-Bak) and 495/510 nm (Tb-labeled anti-his antibody) emission filters. Dissociation constants (Ki) were determined using Wang's equation (Wang, 1995, FEBS Lett. 360:111-114). The TR-FRET assay can be performed in the presence of varying concentrations of human serum (HS) or fetal bovine serum (FBS). Compounds were tested both without HS and in the presence of 1% HS.

circulating platelets [2] = test: Number of circulating platelets in mice after a single dose; details: for Lowest thrombocyte count / Time to lowest count: SCID/bg mice
[3] = test system: Molt-4 human acute lymphoblastic leukemia cells; test: Molt-4 cell viability assay (CellTiter-Glo, 48 hours); assay type: cell-based; details: 10% human serum, read-out: Molt-4 Viability EC50 (nM, 10% HS)
Description: The ability of exemplary Bcl-xL inhibitors can be determined in cell-based killing assays using a variety of cell lines and mouse tumor models. For example, their activity on cell viability can be assessed on a panel of cultured tumorigenic and non-tumorigenic cell lines, as well as primary mouse or human cell populations. Bcl-xL inhibitory activity of exemplary Bcl-xL inhibitors was confirmed in a cell viability assay with Molt-4 cells.
In one exemplary set of conditions, Molt-4 (ATCC, Manassas, Va.) human acute lymphoblastic leukemia cells were plated 12,500 cells per well in 384-well tissue culture plates (Corning, Corning, N.Y.) in a total volume of 25 μL tissue culture medium supplemented with 10% human serum (Sigma-Aldrich, St. Louis, Mo.) and treated with a 3-fold serial dilution of the compounds of interest from 10 μM to 0.0005 μM. Each concentration was tested in duplicate at least 3 separate times. The number of viable cells following 48 hours of compound treatment was determined using the CellTiter-Glo Luminescent Cell Viability Assay according to the manufacturer's recommendations (Promega Corp., Madison, Wis.). Compounds were tested in the presence of 10% HS.

[4] = in the presence of 1% human serum, read-out: Bcl-xL Binding Ki (nM, 1% HS)
[5] = without HS, read-out: Bcl-xL Binding Ki
[6] = single dose 0.61 mg/kg, intravenous
[7] = 25 mg/kg/day PO QDx14, 25 mg/kg/day

CC1(C)CCC(CN2CCN(c3ccc(C(=O)NS(=O)(=O)c4ccc(NCC5CCOCC5)c([N+](=O)[O-])c4)c(Oc4cnc5[nH]ccc5c4)c3)CC2)=C(c2ccc(Cl)cc2)C1 [ABT-199]
Growth Inhibition TGD (%) (NCI-H146 xenografts): 48* %
Growth Inhibition TGImax (%) (NCI-H146 xenografts): 75* %
Response Frequency CR (%) (NCI-H146 xenografts): 0%
Response Frequency OR (%) (NCI-H146 xenografts): 0%
Response Frequency PR (%) (NCI-H146 xenografts): 0%
Growth Inhibition TGD (%) (NCI-H1963.FP5 xenografts): 22* %
Growth Inhibition TGImax (%) (NCI-H1963.FP5 xenografts): 50* %
Response Frequency CR (%) (NCI-H1963.FP5 xenografts): 0%
Response Frequency OR (%) (NCI-H1963.FP5 xenografts): 0%
Response Frequency PR (%) (NCI-H1963.FP5 xenografts): 0%

CC1(C)CCC(c2ccc(Cl)cc2)=C(CN2CCN(c3ccc(C(=O)NS(=O)(=O)c4ccc(N[C@H](CCN5CCOCC5)CSc5ccccc5)c(S(=O)(=O)C(F)(F)F)c4)cc3)CC2)C1 [ABT-263, Navitoclax]
Time to lowest count (circulating platelets [1]): 6 h
Lowest thrombocyte count (circulating platelets [1]; 6 h): 10 1/10^3 of the platelet#/mm^3

CC(=O)O[C@@]12CO[C@@H]1C[C@H](O)[C@@]1(C)C(=O)[C@H](O)C3=C(C)[C@@H](OC(=O)[C@H](O)[C@@H](NC(=O)OC(C)(C)C)c4ccccc4)C[C@@](O)([C@@H](OC(=O)c4ccccc4)[C@H]21)C3(C)C [DTX, docetaxel]
Response Frequency CR (%) (EBC-1 xenografts): 0%
Response Frequency OR (%) (EBC-1 xenografts): 0%
Response Frequency PR (%) (EBC-1 xenografts): 0%
Growth Inhibition TGD (%) (EBC-1 xenografts; 7.5 mg/kg/day): 44%
Growth Inhibition TGImax (%) (EBC-1 xenografts; 7.5 mg/kg/day): 76%
Growth Inhibition TGD (%) (NCI-H1650 xenografts; 7.5 mg/kg/day IV QDx1): 94* %
Growth Inhibition TGImax (%) (NCI-H1650 xenografts; 7.5 mg/kg/day IV QDx1): 73* %
Response Frequency CR (%) (NCI-H1650 xenografts; 7.5 mg/kg/day IV QDx1): 0%
Response Frequency OR (%) (NCI-H1650 xenografts; 7.5 mg/kg/day IV QDx1): 0%
Response Frequency PR (%) (NCI-H1650 xenografts; 7.5 mg/kg/day IV QDx1): 0%

CNCCOC12CC3(C)CC(C)(CC(Cn4ncc(-c5ccc(N6CCc7cccc(C(=O)Nc8nc9ccccc9s8)c7C6)nc5C(=O)O)c4C)(C3)C1)C2 [Example 1.1]
Ki (GST-Bcl-xL; [4]): 0.39 nM
Ki (GST-Bcl-xL; [5]): 0.0029 nM
Decrease of the platelet number from normal count (circulating platelets [2]; dose of 0.61 mg/kg): 100 fold
Lowest thrombocyte count (circulating platelets [2]; [6]): 6 1/10^3 of the platelet#/mm^3
Time to lowest count (circulating platelets [2]; [6]): 6 h
EC50 [3]: 7.8 nM

CNCCOCCOCCOC12CC3(C)CC(C)(CC(Cn4ncc(-c5ccc(N6CCc7cccc(C(=O)Nc8nc9ccccc9s8)c7C6)nc5C(=O)O)c4C)(C3)C1)C2 [Example 1.2, 6-[8-(1,3-benzothiazol-2-ylcarbamoyl)-3,4-dihydroisoquinolin-2(1H)-yl]-3-(1-({[(1r,3R,5S,7s)-3,5-dimethyl-7-(2-(2-[2-(methylamino)ethoxy]ethoxy}ethoxy)tricyclo[3.3.1.1^3,7]dec-1-yl]methyl)-5-methyl-1H-pyrazol-4-yl)pyridine-2-carboxylic acid]
Ki (GST-Bcl-xL; [4]): 0.51 nM
Ki (GST-Bcl-xL; [5]): 0.04 nM
EC50 [3]: 5.4 nM

Cc1c(-c2ccc(N3CCc4cccc(C(=O)Nc5nc6ccccc6s5)c4C3)nc2C(=O)O)cnn1CC12CC3(C)CC(C)(C1)CC(OCCN)(C3)C2 [Example 1.3, 3-(1-{[3-(2-aminoethoxy)-5,7-dimethyltricyclo[3.3.1.1^3,7]dec-1-yl]methyl}-5-methyl-1H-pyrazol-4-yl)-6-[8-(1,3-benzothiazol-2-ylcarbamoyl)-3,4-dihydroisoquinolin-2(1H)yl]pyridine-2-carboxylic acid]
Ki (GST-Bcl-xL; [4]): 0.097 nM
Ki (GST-Bcl-xL; [5]): < 0.001 nM
EC50 [3]: 6.6 nM

Cc1c(-c2ccc(N3CCc4cccc(C(=O)Nc5nc6ccccc6s5)c4C3)nc2C(=O)O)cnn1CC12CC3(C)CC(C)(C1)CC(OCCOCCN)(C3)C2 [Example 1.4, 3-[1-({3-[2-(2-aminoethoxy)ethoxy]-5,7-dimethyltricyclo[3.3.1.1^3,7]dec-1-yl}methyl)-5-methyl-1H-pyrazol-4-yl]-6-[8-(1,3-benzothiazol-2-ylcarbamoyl)-3,4-dihydroisoquinolin-2(1H)yl]pyridine-2-carboxylic acid]
Ki (GST-Bcl-xL; [4]): 0.24 nM
Ki (GST-Bcl-xL; [5]): 0.01 nM
EC50 [3]: 12.1 nM

COCCNCCOC12CC3(C)CC(C)(CC(Cn4ncc(-c5ccc(N6CCc7cccc(C(=O)Nc8nc9ccccc9s8)c7C6)nc5C(=O)O)c4C)(C3)C1)C2 [Example 1.5, 6-[8-(1,3-benzothiazol-2-ylcarbamoyl)-3,4-dihydroisoquinolin-2(1H)-yl]-3-(1-[(3-{2-[(2-methoxyethyl)amino]ethoxy}-5,7-dimethyltricyclo[3.3.1.1^3,7]dec-1-yl)methyl]-5-methyl-1H-pyrazol-4-yl)pyridine-2-carboxylic acid]
Ki (GST-Bcl-xL; [4]): 0.078 nM
Ki (GST-Bcl-xL; [5]): < 0.001 nM
EC50 [3]: 1.85 nM

Cc1c(-c2ccc(N3CCc4c(F)ccc(C(=O)Nc5nc6ccccc6s5)c4C3)nc2C(=O)O)cnn1CC12CC3(C)CC(C)(C1)CC(OCCN)(C3)C2 [Example 1.6, 3-(1-{[3-(2-aminoethoxy)-5,7-dimethyltricyclo[3.3.1.1^3,7]dec-1-yl]methyl}-5-methyl-1H-pyrazol-4-yl)-6-[8-(1,3-benzothiazol-2-ylcarbamoyl)-5-fluoro-3,4-dihydroisoquinolin-2(1H)-yl]pyridine-2-carboxylic acid]
Ki (GST-Bcl-xL; [4]): 0.62 nM
Ki (GST-Bcl-xL; [5]): 0.019 nM
EC50 [3]: 47 nM

Cc1c(-c2ccc(N3CCc4cc(F)cc(C(=O)Nc5nc6ccccc6s5)c4C3)nc2C(=O)O)cnn1CC12CC3(C)CC(C)(C1)CC(OCCN)(C3)C2 [Example 1.7, 3-(1-{[3-(2-aminoethoxy)-5,7-dimethyltricyclo[3.3.1.1^3,7]dec-1-yl]methyl}-5-methyl-1H-pyrazol-4-yl)-6-[8-(1,3-benzothiazol-2-ylcarbamoyl)-6-fluoro-3,4-dihydroisoquinolin-2(1H)-yl]pyridine-2-carboxylic acid]
Ki (GST-Bcl-xL; [4]): 0.094 nM
Ki (GST-Bcl-xL; [5]): 0.011 nM
EC50 [3]: 4 nM

Cc1c(-c2ccc(N3CCc4ccc(F)c(C(=O)Nc5nc6ccccc6s5)c4C3)nc2C(=O)O)cnn1CC12CC3(C)CC(C)(C1)CC(OCCN)(C3)C2 [Example 1.8, 3-(1-{[3-(2-aminoethoxy)-5,7-dimethyltricyclo[3.3.1.1^3′ ]dec-1-yl]methyl}-5-methyl-1H-pyrazol-4-yl)-6-[8-(1,3-benzothiazol-2-ylcarbamoyl)-7-fluoro-3,4-dihydroisoquinolin-2(1H)-yl]pyridine-2-carboxylic acid]
Ki (GST-Bcl-xL; [4]): 17 nM
Ki (GST-Bcl-xL; [5]): 0.1 nM

Cc1c(-c2ccc(N3CCc4cccc(C(=O)Nc5nc6ccccc6s5)c4C3)nc2C(=O)O)cnn1CC12CC3CC(CC(C3)C1)C2 [Example A-1331852]
Response Frequency CR (%) (NCI-H1650 xenografts; 25 mg/kg/day PO QDx14): 0%
Response Frequency OR (%) (NCI-H1650 xenografts; 25 mg/kg/day PO QDx14): 0%
Response Frequency PR (%) (NCI-H1650 xenografts; 25 mg/kg/day PO QDx14): 0%
Growth Inhibition TGD (%) (NCI-H1650 xenografts; [7]): 78%
Growth Inhibition TGImax (%) (NCI-H1650 xenografts; [7]): 57%
Lowest thrombocyte count (circulating platelets [2]; single dose 25 mg/kg, oral): 9 1/10^3 of the platelet#/mm^3
Time to lowest count (circulating platelets [2]; single dose 25 mg/kg, oral): 6 h
